Laboratory results taken from patent US9951055B2, “Thiazole-based inhibitors of scavenger receptor BI” (THE BROAD INSTITUTE, INC., priority 2012, dated 2018).
pEC50: −log10 of the molar value. “Also recorded” adds a separate entry of the source. Like-named read-outs stand apart in the source and are kept apart here.

Assays:
ldlA[mSR-BI] cells = experiment: Cell cytotoxicity assay (CellTiter-Glo); format: cell-based, Chinese hamster
Protocol: It is possible that a compound will cause cells to decrease HDL-mediated DiI uptake due to nonspecific consequences of cellular toxicity, representing a second class of false positive hits. The cells were treated with compounds for 3 hours or 24 hours, and then cell viability was measured using the CellTiter-Glo Assay (Promega), a luciferase-based reagent that measures cellular ATP levels. The compounds were tested at different concentrations to determine IC50 values. […] Compounds that were active in the primary assay but toxic below 30 μM at 24 hours (but nontoxic at 3 hours) were still considered. […] Data were normalized against DMSO and the positive control (1 μM BLT-1) in Genedata Assay Analyzer.
All available dry powder samples of the remaining, non-quenching compounds were procured from commercial sources and purities were determined. The compounds obtained were then retested in the primary assay and in the cytotoxicity assays. We wanted to rule out any compounds that were cytotoxic, especially in the 3-hour time span of the primary DiI-HDL uptake assay. Therefore, compounds were tested in ldlA[mSR-BI]cells for cytotoxicity at 3 hours and 24 hours using the CellTiter-Glo assay (Promega) that measures cellular ATP as a marker of cell viability. […] Compounds were screened for inhibition of endocytosis using labeled transferrin, which is known to bind the transferrin receptor, enter cells by clathrin-mediated endocytosis, and move to endosomes before being recycled to the cell surface. The BLT compounds have also been tested for potential interference with endocytosis and show no such activity.

[1] = biological target: T1, murine SR-BI with the C384S mutation (Mus musculus, UniProt Q61009, C384S); experiment: Mutant SR-BI cholesterol efflux assay; format: cell-based
T1 construct: expressed in transfected cells; host or cells: CHO cell line lacking LDL receptors (variant of ldlA[mSR-BI])
T1 sequence (Q61009 1-509 C384S): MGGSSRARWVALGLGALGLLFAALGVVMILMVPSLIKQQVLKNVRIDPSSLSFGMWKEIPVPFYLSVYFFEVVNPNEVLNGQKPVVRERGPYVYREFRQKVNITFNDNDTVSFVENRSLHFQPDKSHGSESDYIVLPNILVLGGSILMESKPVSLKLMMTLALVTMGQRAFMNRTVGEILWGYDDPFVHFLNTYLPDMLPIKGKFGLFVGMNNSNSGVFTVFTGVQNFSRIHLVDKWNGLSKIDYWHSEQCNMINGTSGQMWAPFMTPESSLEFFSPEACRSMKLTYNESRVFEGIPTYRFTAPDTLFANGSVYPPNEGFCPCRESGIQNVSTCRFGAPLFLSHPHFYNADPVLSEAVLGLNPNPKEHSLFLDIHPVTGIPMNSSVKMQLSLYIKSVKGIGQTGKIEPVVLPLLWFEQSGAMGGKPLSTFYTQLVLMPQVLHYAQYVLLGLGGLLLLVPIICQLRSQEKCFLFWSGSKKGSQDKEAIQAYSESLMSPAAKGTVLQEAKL
Protocol: Mutant SR-BI Cholesterol Efflux Assay (SA 10: AID Nos. 588843, 602138)
BLT-1 is known to interact at cysteine 384 of SR-BI (16). […] This assay is used to determine if the compounds work in a similar fashion to BLT-1 and require Cys384 to alter the efflux of free cholesterol to HDL.
On Day 0, 50,000 cells expressing murine SR-BI with the C384S mutation per well were plated in 24-well plates. On the following day, […] On Day 1, the medium was replaced with Ham's F12 medium supplemented with 10% bovine lipoprotein deficient serum with 1 μCi/ml [1,2-^3H]cholesterol (40-60 Ci/mmol). On Day 3, the cells were washed to remove serum and incubated in Ham's F12 plus 1% fatty acid-free BSA. On Day 4, the cells were washed and pretreated with compounds for 1 hour. Subsequently, the cells were incubated for an additional 2 hours with the same concentrations of small molecules and with unlabeled HDL (final HDL concentration of 100 μg protein/ml). […] The amount of [^3H]cholesterol in the medium and within cells was calculated using liquid scintillation counting. Total cellular [^3H]cholesterol was determined as the sum of the radioactivity in the efflux medium plus the radioactivity in the cells and was used to calculate the [^3H]cholesterol efflux (percent of total [^3H]cholesterol released into the medium).

[2] = tested on: Jc1 378-1 TagRFP reporter HCV virus; experiment: In vitro inhibition of HCV in Huh-7.5 cells; format: cell-based, hepatitis C virus; details: for inhibition of HCV replication: Huh-7.5 cells, MOI=0.1, 3 dpi; for mean fluorescence intensity (MFI) of HCV positive cells: normalized to DMSO control
Protocol: The compound of formula (II) was also tested for the in vitro inhibition of HCV. Huh-7.5 cells were seeded in a 24-well plates (50,000 cells/well) and incubate over night. The medium was changed to compound/solvent containing medium 2 hours prior to infection (200 μL/well) with a reporter HCV virus called Jc1 378-1 TagRFP. A dilute virus stock was used to infect at a MOI of 0.1 (7,500 IU/well) in 10 μL medium. 10 μL of virus dilution was added to the wells containing compound/solvent (thereby dilution the compounds by only ˜5%). Infections were incubated for 4 hours before washing off the inoculum 1× with 500 μL medium. Fresh compound/solvent containing medium was added to the cells (500 μL/well), and further incubated for 48-72 hours. Cells were harvested at 48-72 hpi and viral replication was determined by fixing the cells and measuring replication by FACS (fluorescence activated cell sorting). Controls having antibodies that neutralize HCV by blocking E2 (2 μg/mL) and controls having antibodies that block a HCV receptor CD81 (2 μg/mL) were used.
A series of tests were conducted using the compound of Formula II ML278), other known inhibitors of SRB1 and controls with cells infected with hepatitis C virus (HCV). The cells (Huh-7.5 cells infected with Jc1 378-1 TagRFP (MOI=0.1) 3 dpi) were treated with the following SR-BI compounds and controls:
Three different infection protocols were followed: (1) no wash—virus inoculum was removed 4 hpi and fresh medium containing compounds added without washing cells; (2) 5× wash—virus inoculum was removed 4 hpi, cells were washed 5× with PBS and fresh medium containing compounds added; and (3) no wash Opt—infection were performed in serum-free OptiMem; virus inoculum was removed 4 hpi and fresh medium containing compounds added without washing cells. FIG. 107 provides a comparison of the three different infection set-ups. FIG. 108 provides a comparison of two independent experiments.

SMILES	cytotoxicity (ldlA[mSR-BI] cells)	efflux of cholesterol in Cys384Ser mutant background [1]	inhibition of HCV replication ([2]; listed as SRB1-8)	mean fluorescence intensity (MFI) of HCV positive cells [2]	cytotoxicity (ldlA[mSR-BI] cells; listed as ML278)	pEC50 ([2]; Hepatitis C virus, Huh7.5, read-out: EC50, HCV)	EC90 ([2]; Hepatitis C virus, Huh7.5, read-out: EC90, HCV) [nM]	inhibition of HCV replication ([2]; listed as SRB1-7)
CCCCCCC1CCCC1=NNC(N)=S (stereo not shown) [BLT-1, reference compound]	toxic to cells	does not significantly reduce uptake of HDL or efflux of cholesterol	inhibited viral replication; also recorded: able to inhibit HCV replication	increased mean fluorescence intensity (MFI) of HCV positive cells in a dose dependent manner	–	–	–	–
COCC(=O)N1CCc2cc(-c3csc(NC(=O)c4cc(OC)cc(OC)c4)n3)ccc21 [Compound 137, 3,5-Dimethoxy-N-(4-(1-(2-methoxyacetyl)indolin-5-yl)thiazol-2-yl)benzamide]	–	can reduce uptake and efflux in the mutant background	–	this increase was not seen	no cytotoxicity at 24 hours; also recorded: shows no cytotoxicity	7.36	~500	inhibited viral replication; also recorded: able to inhibit HCV replication
